Experimental findings from US20100311729A1, “Substituted imidazopyridazines and pyrrolopyrimidines as lipid kinase inhibitors” (priority 2007, published 2010) are described below.

Holding throughout (assay type): biochemical
In one test the target is T1, PI3K alfa (Homo sapiens, UniProt P42336).
T1 construct: for the p110-a subunit (with a deletion of the first 20 amino acids); His tag (C); made in house; host or cells: baculovirus; Tn5 (Trichoplusia ni) or TiniPro insect cells
Briefly: PI3 kinase assay (Kinase-Glo luminescence), PI3K alfa. Conditions: Enzymatic Data; read-out: PI3K alfa IC50 [umol]. Put shortly:
(§1)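 Recombinant PI3K constructs (alfa 10 nM, delta 10 nM, gamma 150 nM) with 1 μM ATP and 10 μg/mL phosphatidylinositol in Tris pH 7.5, MgCl2, NaCl, CHAPS, DTT; 60 min (alfa, delta) or 120 min (gamma) at room temperature. ATP depletion read by Kinase-Glo luminescence; IC50 from 4-parameter logistic fit over 8 concentrations.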

Another test concerns the target T2, PI3K beta (Homo sapiens, UniProt P42338).
T2 construct: for the full-length p110-b subunit are generated and fused by overlapping PCR; His tag (C); made in house; host or cells: baculovirus; Tn5 (Trichoplusia ni) or TiniPro insect cells
Nature of the test: PI3 kinase assay (Kinase-Glo luminescence), PI3K beta. Conditions: Enzymatic Data; read-out: PI3K beta IC50 [umol]. The gist of the method:
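PI3Kβ (25 nM, BV-949) with 10 μg/mL phosphatidylinositol in Tris pH 7.5/MgCl2/NaCl/CHAPS/DTT buffer; reaction started with 1 μM ATP, 60 min at room temperature. ATP depletion read by Kinase-Glo luminescence; 8-point dilutions, IC50 by four-parameter logistic fit.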
A general note: Kinase-Glo reads ATP consumption through a luciferase reaction.

The target of another test is T3, PI3K delta (Homo sapiens, UniProt O00329).
T3 construct: for the full-length p110-d subunit are generated and fused by overlapping PCR; His tag (C); made in house; host or cells: baculovirus; Tn5 (Trichoplusia ni) or TiniPro insect cells
Briefly: PI3 kinase assay (Kinase-Glo luminescence), PI3K delta. Conditions: Enzymatic Data; read-out: PI3K delta IC50 [umol]. Put shortly: as §1

The target of the next test is T4, PI3K gamma (Homo sapiens, UniProt P48736).
T4 construct: PI3Kγ BV-950 p110g(D144aa)-C-Term His Tag; His tag (C); made in house; host or cells: construct from the Roger Williams lab (MRC LMB) in pVL1393; baculovirus; Tn5 (Trichoplusia ni) or TiniPro insect cells
Briefly: PI3 kinase assay (Kinase-Glo luminescence), PI3K gamma. Conditions: Enzymatic Data; read-out: PI3K gamma IC50 [umol]. The gist of the method: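 Percent inhibition at eight concentrations (typically 10 to 0.003 […]) fitted to a four-parameter logistic model to give IC50. Reaction initiated with ATP; final ATP 1 μM and phosphatidylinositol 10 μg/mL; ATP consumption read by Kinase-Glo luminescence.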

T3 sequence (O00329 with tags, fused parts or gaps limits assumed): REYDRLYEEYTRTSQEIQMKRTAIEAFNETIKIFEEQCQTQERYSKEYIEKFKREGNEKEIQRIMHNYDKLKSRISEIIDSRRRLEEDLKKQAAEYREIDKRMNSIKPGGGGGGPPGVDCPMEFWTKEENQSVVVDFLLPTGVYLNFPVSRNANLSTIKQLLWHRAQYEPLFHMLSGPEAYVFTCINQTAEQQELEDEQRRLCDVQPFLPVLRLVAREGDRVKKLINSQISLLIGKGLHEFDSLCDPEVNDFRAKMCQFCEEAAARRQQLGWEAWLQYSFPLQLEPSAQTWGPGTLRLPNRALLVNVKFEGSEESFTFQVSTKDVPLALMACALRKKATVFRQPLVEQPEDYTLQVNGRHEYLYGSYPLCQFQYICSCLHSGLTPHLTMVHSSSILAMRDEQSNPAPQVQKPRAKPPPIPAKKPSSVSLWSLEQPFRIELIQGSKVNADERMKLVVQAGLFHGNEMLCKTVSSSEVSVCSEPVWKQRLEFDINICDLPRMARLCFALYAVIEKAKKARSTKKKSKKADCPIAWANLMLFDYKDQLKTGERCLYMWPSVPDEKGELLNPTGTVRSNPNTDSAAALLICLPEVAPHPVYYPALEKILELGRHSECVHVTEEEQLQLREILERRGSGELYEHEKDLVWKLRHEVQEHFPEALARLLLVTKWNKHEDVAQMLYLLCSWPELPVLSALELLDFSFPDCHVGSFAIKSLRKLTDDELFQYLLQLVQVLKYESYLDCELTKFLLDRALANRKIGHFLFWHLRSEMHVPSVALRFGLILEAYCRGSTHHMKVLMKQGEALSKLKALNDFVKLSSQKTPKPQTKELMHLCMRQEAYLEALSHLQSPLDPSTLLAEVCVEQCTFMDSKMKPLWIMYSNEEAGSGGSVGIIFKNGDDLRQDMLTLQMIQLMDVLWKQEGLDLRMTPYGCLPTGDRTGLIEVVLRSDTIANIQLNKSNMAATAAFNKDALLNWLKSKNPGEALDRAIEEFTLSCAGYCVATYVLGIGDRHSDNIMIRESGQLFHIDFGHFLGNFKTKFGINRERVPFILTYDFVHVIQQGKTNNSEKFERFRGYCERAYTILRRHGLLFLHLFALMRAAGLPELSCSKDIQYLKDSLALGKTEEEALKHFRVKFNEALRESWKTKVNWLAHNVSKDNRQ
T1 sequence (P42336 with tags, fused parts or gaps limits assumed): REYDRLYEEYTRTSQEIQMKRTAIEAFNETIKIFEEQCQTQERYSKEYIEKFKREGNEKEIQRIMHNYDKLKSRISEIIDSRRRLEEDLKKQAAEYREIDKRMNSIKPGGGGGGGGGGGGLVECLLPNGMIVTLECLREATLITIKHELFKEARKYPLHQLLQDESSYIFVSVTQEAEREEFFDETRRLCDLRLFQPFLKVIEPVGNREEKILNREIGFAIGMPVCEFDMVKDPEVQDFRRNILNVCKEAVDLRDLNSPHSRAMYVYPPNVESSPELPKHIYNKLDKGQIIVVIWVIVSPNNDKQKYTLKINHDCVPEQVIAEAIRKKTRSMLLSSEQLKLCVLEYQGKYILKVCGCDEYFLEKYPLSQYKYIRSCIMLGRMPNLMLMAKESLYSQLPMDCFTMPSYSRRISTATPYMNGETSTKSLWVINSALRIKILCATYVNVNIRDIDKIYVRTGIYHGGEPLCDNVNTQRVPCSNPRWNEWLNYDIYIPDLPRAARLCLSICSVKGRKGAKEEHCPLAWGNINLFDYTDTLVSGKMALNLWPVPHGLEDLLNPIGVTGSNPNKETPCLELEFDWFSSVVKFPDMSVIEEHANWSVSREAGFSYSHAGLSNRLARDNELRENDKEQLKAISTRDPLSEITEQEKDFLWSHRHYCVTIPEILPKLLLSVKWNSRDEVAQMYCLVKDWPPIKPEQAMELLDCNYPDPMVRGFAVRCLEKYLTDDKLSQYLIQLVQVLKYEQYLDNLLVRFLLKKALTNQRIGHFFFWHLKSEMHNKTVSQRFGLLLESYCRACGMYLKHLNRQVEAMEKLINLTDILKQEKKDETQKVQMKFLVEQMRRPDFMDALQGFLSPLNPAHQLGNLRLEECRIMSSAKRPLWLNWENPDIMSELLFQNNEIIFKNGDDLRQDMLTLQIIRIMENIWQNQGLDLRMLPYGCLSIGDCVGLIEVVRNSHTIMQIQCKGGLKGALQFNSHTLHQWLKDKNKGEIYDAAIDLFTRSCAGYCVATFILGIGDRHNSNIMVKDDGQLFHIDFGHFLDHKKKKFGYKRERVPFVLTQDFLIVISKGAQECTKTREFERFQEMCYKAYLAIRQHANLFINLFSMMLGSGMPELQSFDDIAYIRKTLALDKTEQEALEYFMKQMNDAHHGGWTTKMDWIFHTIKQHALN
T4 sequence (P48736 144-1102 limits assumed): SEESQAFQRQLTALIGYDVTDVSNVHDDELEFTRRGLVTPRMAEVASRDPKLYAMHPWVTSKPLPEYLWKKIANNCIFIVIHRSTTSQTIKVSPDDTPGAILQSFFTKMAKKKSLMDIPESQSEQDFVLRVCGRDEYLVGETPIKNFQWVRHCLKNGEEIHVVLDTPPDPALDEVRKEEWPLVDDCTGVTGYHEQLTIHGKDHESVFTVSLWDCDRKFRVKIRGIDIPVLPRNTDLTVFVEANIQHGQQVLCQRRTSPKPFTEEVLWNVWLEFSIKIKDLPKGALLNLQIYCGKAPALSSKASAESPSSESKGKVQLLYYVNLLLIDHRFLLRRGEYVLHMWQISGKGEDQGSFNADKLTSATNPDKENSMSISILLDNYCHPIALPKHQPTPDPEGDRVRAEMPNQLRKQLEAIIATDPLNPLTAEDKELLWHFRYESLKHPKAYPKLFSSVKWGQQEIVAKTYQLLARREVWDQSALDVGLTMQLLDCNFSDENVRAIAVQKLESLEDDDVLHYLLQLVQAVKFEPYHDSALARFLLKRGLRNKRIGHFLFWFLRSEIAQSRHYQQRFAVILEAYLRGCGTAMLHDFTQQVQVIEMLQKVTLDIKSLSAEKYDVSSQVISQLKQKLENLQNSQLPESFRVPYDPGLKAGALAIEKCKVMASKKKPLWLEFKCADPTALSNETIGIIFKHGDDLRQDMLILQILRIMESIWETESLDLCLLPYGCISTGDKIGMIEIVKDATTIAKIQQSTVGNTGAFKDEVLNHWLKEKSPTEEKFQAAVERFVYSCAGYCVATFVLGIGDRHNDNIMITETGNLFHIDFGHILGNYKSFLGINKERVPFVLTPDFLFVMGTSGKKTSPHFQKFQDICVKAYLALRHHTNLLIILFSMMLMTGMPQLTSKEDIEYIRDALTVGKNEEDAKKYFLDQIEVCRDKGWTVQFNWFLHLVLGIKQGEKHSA
T2 sequence (P42338 with tags, fused parts or gaps limits assumed): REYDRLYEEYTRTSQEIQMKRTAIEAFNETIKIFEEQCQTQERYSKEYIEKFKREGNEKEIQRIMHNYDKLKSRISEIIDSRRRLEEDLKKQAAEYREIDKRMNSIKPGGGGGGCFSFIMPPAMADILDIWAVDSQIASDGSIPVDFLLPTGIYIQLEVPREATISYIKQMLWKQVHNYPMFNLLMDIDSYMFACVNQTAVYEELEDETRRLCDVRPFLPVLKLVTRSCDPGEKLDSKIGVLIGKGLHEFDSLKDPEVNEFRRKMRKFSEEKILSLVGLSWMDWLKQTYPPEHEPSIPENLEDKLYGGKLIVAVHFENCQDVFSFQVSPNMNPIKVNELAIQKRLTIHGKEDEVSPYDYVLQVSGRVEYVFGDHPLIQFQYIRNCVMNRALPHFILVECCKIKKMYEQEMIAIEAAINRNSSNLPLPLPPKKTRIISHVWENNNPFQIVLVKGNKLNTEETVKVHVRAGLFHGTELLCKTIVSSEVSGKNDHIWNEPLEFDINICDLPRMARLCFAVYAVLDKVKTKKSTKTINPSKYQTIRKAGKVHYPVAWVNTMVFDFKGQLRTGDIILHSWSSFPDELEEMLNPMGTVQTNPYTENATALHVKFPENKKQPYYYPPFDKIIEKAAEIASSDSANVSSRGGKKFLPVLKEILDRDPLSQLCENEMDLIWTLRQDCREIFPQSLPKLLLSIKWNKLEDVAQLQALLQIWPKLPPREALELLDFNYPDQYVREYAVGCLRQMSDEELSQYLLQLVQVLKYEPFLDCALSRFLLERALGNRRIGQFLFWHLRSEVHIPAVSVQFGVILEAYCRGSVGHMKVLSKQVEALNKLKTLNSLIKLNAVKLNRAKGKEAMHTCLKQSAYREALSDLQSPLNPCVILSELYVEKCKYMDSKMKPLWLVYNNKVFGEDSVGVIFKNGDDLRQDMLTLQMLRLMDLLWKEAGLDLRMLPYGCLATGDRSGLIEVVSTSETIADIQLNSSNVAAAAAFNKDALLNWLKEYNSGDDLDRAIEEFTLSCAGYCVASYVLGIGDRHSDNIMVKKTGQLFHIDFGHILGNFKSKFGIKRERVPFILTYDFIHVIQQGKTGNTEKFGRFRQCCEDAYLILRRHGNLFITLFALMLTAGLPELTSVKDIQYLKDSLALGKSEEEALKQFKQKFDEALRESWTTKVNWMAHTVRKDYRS

Turning to `Nc1ncc(-c2ccc3ncc(-c4ccc(OCCn5cccn5)cc4)n3n2)cc1C(F)(F)F` [Example 88, 5-{3-[4-(2-Pyrazol-1-yl-ethoxy)-phenyl]-imidazo[1,2-b]pyridazin-6-yl}-3-trifluoro-methyl-pyridin-2-ylamine], the IC50 was found to be 128 nM on PI3K alfa, 0.993 µM on PI3K beta, 148 nM on PI3K delta and 2.43 µM on PI3K gamma.
With `Nc1ncc(-c2cnc3ccc(-c4ccc(OCCCN5CCCC5=O)cc4)nn23)cc1C(F)(F)F` [Example 89, 1-(3-{4-[3-(6-Amino-5-trifluoro-methyl-pyridin-3-yl)-imidazo [1,2-b]pyridazin-6-yl]-phenoxy}-propyl)-pyrrolidin-2-one], the IC50 turned out to be 74 nM on PI3K alfa, 2.76 µM at PI3K beta, 88 nM on PI3K delta and 0.543 µM on PI3K gamma.
For `Nc1ncc(-c2cnc3ccc(-c4ccc(OCCCN5CCCC5=O)c(F)c4)nn23)cc1C(F)(F)F` [Example 90, 1-(3-{4-[3-(6-Amino-5-trifluoro-methyl-pyridin-3-yl)-imidazo [1,2-b]pyridazin-6-yl]-2-fluoro-phenoxy}-propyl)-pyrrolidin-2-one], in that order: 1140 nM, more than 9.1 µM, 1110 nM and 4.69 µM.
In the same order, the values of `O=C1CCCN1CCCOc1ccc(-c2ccc3ncc(-c4cnc5[nH]ccc5c4)n3n2)cc1F` [Example 91, 1-(3-{2-Fluoro-4-[3-(1H-pyrrolo [2,3-b]pyridin-5-yl)-imidazo [1,2-b]pyridazin-6-yl]-phenoxy}-propyl)-pyrrolidin-2-one] are 155 nM, 7.62 µM, 530 nM and 6.54 µM.
Regarding `Nc1ncc(-c2cnc3ccc(-c4ccc(OCCn5cccn5)cc4)nn23)cc1C(F)(F)F` [Example 92, 5-{6-[4-(2-Pyrazol-1-yl-ethoxy)-phenyl]-imidazo [1,2-b]pyridazin-3-yl}-3-trifluoro-methyl-pyridin-2-ylamine], the IC50 on PI3K alfa was 573 nM; at PI3K beta, 4.11 µM; on PI3K delta, 1240 nM; at PI3K gamma it was more than 9.1 µM.
With `c1cnn(CCOc2ccc(-c3ccc4ncc(-c5cnc6[nH]ccc6c5)n4n3)cc2)c1` [Example 93, 6-[4-(2-Pyrazol-1-yl-ethoxy)-phenyl]-3-(1H-pyrrolo [2,3-b]pyridin-5-yl)-imidazo [1,2-b] pyridazine], the IC50 amounted to 157 nM on PI3K alfa, 6.93 µM at PI3K beta, 1270 nM on PI3K delta and 5.83 µM on PI3K gamma.
For `Nc1ncc(-c2cnc3ccc(-c4ccc(OCCN5CCCC5=O)c(F)c4)nn23)cc1C(F)(F)F` [Example 94, 1-(2-{4-[3-(6-Amino-5-trifluoro-methyl-pyridin-3-yl)-imidazo [1,2-b]pyridazin-6-yl]-2-fluoro-phenoxy}-ethyl)-pyrrolidin-2-one], in that order: 62 nM, 0.441 µM, 146 nM and 2.15 µM.
In the same order, the values of `Nc1ncc(-c2ccc3ncc(-c4ccc(C(=O)O)c(F)c4)n3n2)cc1C(F)(F)F` [Example 95, 4-[6-(6-Amino-5-trifluoro-methyl-pyridin-3-yl)-imidazo [1,2-b]pyridazin-3-yl]-2-fluoro-benzoic acid] are 6 nM, 0.059 µM, 20 nM and 0.928 µM.
For `O=C1CCCN1CCOc1ccc(-c2ccc3ncc(-c4cnc5[nH]ccc5c4)n3n2)cc1F` [Example 96, 1-(2-{2-Fluoro-4-[3-(1H-pyrrolo [2,3-b]pyridin-5-yl)-imidazo [1,2-b]pyridazin-6-yl]-phenoxy)-ethyl)-pyrrolidin-2-one], in that order: 501 nM, 4.71 µM, 1090 nM and 7.66 µM.
